# Laboratory results published in patent US20070093484A1, “3-Substituted 5,6-diaryl-pyrazine-2-carboxamide and -2-sulfonamide derivatives as cb1 modulators” (ASTRAZENECA AB, priority 2003, published 2007).
# Target: T1, CB1 receptor (Homo sapiens, UniProt P21554)
# T1 construct: expressed in transfected cells
# Test: [35S]-GTPγS binding assay, inhibition of CP55940-stimulated activity in membranes from CB1-transfected cells
# Type: biochemical
# Conditions: membranes from cells stably transfected with the CB1 gene; EC80 concentration of agonist CP55940; 30° C., 45 min; read-out: IC50 (concentration required to give half maximal inhibition of GTPγS binding)
# Source text: Compounds of the present invention are active against the receptor product of the CB1 gene. The compounds of the present invention are active at the CB 1 receptor (IC50<1 micromolar). Most preferred compounds have IC50<200 nanomolar. The affinity of the compounds of the invention for central cannabinoid receptors is demonstrable in methods described in Devane et al, Molecular Pharmacology, 1988, 34,605 or those described in WO 01/70700 or EP 656354. Alternatively the assay may be performed as follows.
# 10 μg of membranes prepared from cells stably transfected with the CB1 gene were suspended in 200 μl of 100 mM NaCl, 5 mM MgCl2, 1 mM EDTA, 50 mM HEPES (pH 7.4), 1 mM DTT, 0.1% BSA and 100 μM GDP. To this was added an EC80 concentration of agonist CP55940), the required concentration of test compound and 0.1 μCi [^35S]-GTPγS. The reaction was allowed to proceed at 30° C. for 45 nun. Samples were then transferred on to GF/B filters using a cell harvester and washed with wash buffer (50 mM Tris (pH 7.4), 5 mM MgCl2, 50 mM NaCl). Filters were then covered with scintilant and counted for the amount of [35]-GTPγS retained by the filter.
# Activity is measured in the absence of all ligands (minimum activity) or in the presence of an EC80 concentration of CP55940 (maximum activity). These activities are set as 0% and 100% activity respectively. At various concentrations of novel ligand, activity is calculated as a percentage of the maximum activity and plotted. The data are fitted using the equation y=A+((B−A)/1+((C/x)UD)) and the IC50 value determined as the concentration required to give half maximal inhibition of GTPγS binding under the conditions used.
# T1 sequence (P21554 whole entry): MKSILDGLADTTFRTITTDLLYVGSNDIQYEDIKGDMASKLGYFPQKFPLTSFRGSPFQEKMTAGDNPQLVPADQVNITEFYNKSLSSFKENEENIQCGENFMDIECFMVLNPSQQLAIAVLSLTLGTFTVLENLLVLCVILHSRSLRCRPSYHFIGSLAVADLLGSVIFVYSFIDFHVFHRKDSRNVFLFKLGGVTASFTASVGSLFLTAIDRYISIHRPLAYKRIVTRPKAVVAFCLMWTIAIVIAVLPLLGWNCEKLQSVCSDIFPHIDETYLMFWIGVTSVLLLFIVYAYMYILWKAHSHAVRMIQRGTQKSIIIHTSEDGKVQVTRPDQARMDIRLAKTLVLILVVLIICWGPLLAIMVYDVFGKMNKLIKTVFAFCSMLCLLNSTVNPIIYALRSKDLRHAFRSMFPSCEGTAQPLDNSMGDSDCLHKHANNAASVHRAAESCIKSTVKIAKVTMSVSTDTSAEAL
row,IC50 [nM],Structure (SMILES)
1,1.4,"Cc1ccc(-c2nc(Cn3cnnn3)c(C(=O)NN3CCCCC3)nc2-c2ccc(C)cc2)cc1 [Example 35, 5,6-Bis(4-methylphenyl)-N-piperidin-1-yl-3-(1H-tetrazol-1-ylmethyl)pyrazine-2-carboxamide]"
2,1.8,CC(C)(C)NNC(=O)c1nc(-c2ccc(Cl)cc2)c(-c2ccc(Cl)cc2)nc1C(=O)OC(C)(C)C [Example 9]
3,13.5,"O=C(NN1CCCCC1)c1nc(-c2ccc(Cl)cc2)c(-c2ccc(Cl)cc2)nc1CN1CCOCC1 [Example 27, 5,6-bis(4-chlorophenyl)-3-(morpholin-4-ylmethyl)-N-piperidin-1-ylpyrazine-2-carboxamide]"
